Results from ChEMBL document CHEMBL1157695, “Identification of a novel ligand binding motif in the transthyretin channel” (Bioorg Med Chem, 2010).
The source made the active and inactive calls. The calls are words filed in the database; no cut-off is given here.

How the values were obtained:
[1] = target: Transthyretin (Homo sapiens, UniProt P02766, V50M); assay: Binding affinity to human recombinant TTR V30M mutant denominated hormone binding site expressed in Escherichia coli by FRET analysis
[2] = Binding affinity to human recombinant TTR T119M mutant denominated hormone binding site expressed in Escherichia coli by FRET analysis
[3] = target: Transthyretin (Homo sapiens) (UniProt P02766); assay: Binding affinity to wild type human TTR denominated hormone binding site expressed in Escherichia coli at 100 nM by fluorescence anisotropy
[4] = tested on: Transthyretin (Homo sapiens), P02766 [V50M]; assay: Binding affinity to human recombinant TTR V30M mutant denominated hormone binding site expressed in Escherichia coli at 100 nM by fluorescence anisotropy
[5] = organism: Homo sapiens; assay: Binding affinity to human recombinant TTR T119M mutant denominated hormone binding site expressed in Escherichia coli at 100 nM by fluorescence anisotropy
[6] = target: Transthyretin (Homo sapiens) (UniProt P02766); assay: Inhibition of wild type human TTR aggregation expressed in Escherichia coli assessed as fibril formation at 20 uM after 72 hrs relative by spectrofluorimetry; set-up: scale not given: the % may be the effect or the level left
[7] = Binding affinity to human recombinant TTR T119M mutant denominated hormone binding site expressed in Escherichia coli assessed as dissociation constant for first ligand binding event by isothermal direct titrimetric assay
[8] = Binding affinity to human recombinant TTR T119M mutant denominated hormone binding site expressed in Escherichia coli assessed as dissociation constant for second ligand binding event by isothermal direct titrimetric assay
[9] = Binding affinity to human recombinant TTR T119M mutant denominated hormone binding site expressed in Escherichia coli by isothermal direct titrimetric assay
[10] = target: Transthyretin (Homo sapiens) (UniProt P02766); assay: Binding affinity to wild type human TTR denominated hormone binding site expressed in Escherichia coli at 10 uM by fluorescence anisotropy
[11] = tested on: Transthyretin (Homo sapiens), P02766 [V50M]; assay: Binding affinity to human recombinant TTR V30M mutant denominated hormone binding site expressed in Escherichia coli at 10 uM by fluorescence anisotropy
[12] = organism: Homo sapiens; assay: Binding affinity to human recombinant TTR T119M mutant denominated hormone binding site expressed in Escherichia coli at 10 uM by fluorescence anisotropy

| SMILES | Kd [1] [µM] | Kd [2] [µM] | Activity [3] | Activity [4] | Activity [5] | Activity [6] [%] | Kd [7] [µM] | Kd [8] [µM] | Kd [9] [µM] | Activity [10] | Activity [11] | Activity [12] |
| --- | --- | --- | --- | --- | --- | --- | --- | --- | --- | --- | --- | --- |
| Nc1cccc2c(S(=O)(=O)O)cccc12 | 86 | 93 | Active | Active | Active | 100 |  |  |  |  |  |  |
| O=S(=O)(O)c1cccc2cccc(Nc3ccccc3)c12 |  |  |  |  |  | 44 | 3.2 | 6.7 | 4.5 | Active | Active | Active |
| O=C(O)Cc1ccccc1Nc1c(Cl)cccc1Cl |  |  |  |  |  | 33 |  |  |  |  |  |  |
